Measured values as given in US4060608A, “Substituted hydroxymethyl benzodiazepines” (DDSA Pharmaceuticals, priority 1975, dated 1977).
Where a name gives a salt, the structure may show the parent alone.

Columns and labels:
Assay type in all cases: in vivo
mice [1] = experiment: Rotarod test (neuro-muscular coordination), groups of 5 mice, 2 minute test periods for 5 hours after dosage
Source text: (§1) In humans, this retention of coordination would avoid or reduce the disadvantages of loss of concentration and related side effects commonly associated with benzodiazepine drugs. The observation of this effect was made on groups of five mice subjected to a Rotarod test.

female mice = experiment: 7-day median lethal dose (LD50) in female mice
Source text: (§2) The compounds in which R4 is furyl are of particular interest. Their psychotropic action is as disclosed above, but in addition their toxicity tends to be low. […] The higher toxicity at lower temperatures was thought to be caused by […] induced by the compound under test.

[2] = 7-day median lethal dose (LD50) in female mice; conditions: mouse, in vivo, 7-day
Source text: as §2

[3] = diuretic activity at sedating dose; conditions: dose levels producing sedation (200 mg/Kg)
Source text: At a clinical dose level it can therefore be assumed that there would be no diuretic effect.

mice [4] = experiment: observation of sedation/tranquillization and hypnotic state in the mice of the Rotarod test
Source text: as §1
*2/5 mice in hypnotic state - not returned to rotarod.

## CN(C)CCCN1c2ccccc2Sc2ccc(Cl)cc21 [Chlorpromazine, reference compound]
Mice [1]; 15 mg./kg., 0 mins. after dosage, 5 mice
  Total Number of Falls: 0
Mice [1]; 15 mg./kg., 15 mins. after dosage, 5 mice
  Total Number of Falls: 1
Mice [1]; 15 mg./kg., 30 mins. after dosage, 5 mice
  Total Number of Falls: 0
Mice [1]; 15 mg./kg., 45 mins. after dosage, 5 mice
  Total Number of Falls: 5
Mice [1]; 15 mg./kg., 60 mins. after dosage, 5 mice
  Total Number of Falls: 13
Mice [1]; 15 mg./kg., 90 mins. after dosage, 5 mice
  Total Number of Falls: 17
Mice [1]; 15 mg./kg., 120 mins. after dosage, 5 mice
  Total Number of Falls: 14
Mice [1]; 15 mg./kg., 180 mins. after dosage, 5 mice
  Total Number of Falls: 9
Mice [1]; 15 mg./kg., 240 mins. after dosage, 5 mice
  Total Number of Falls: 13
Mice [1]; 15 mg./kg., 300 mins. after dosage, 5 mice
  Total Number of Falls: 9

## CN(C1=Nc2ccc(Cl)cc2C(c2ccccc2)=[N+]([O-])C1)C(O)c1ccco1 (stereo not shown) [SH60, 7-chloro-2-(N-methyl-N-1-hydroxyfurfurylamino)-5-phenyl-3H-1,4-benzodiazepine-4-oxide hydrochloride]
Female mice
  toxicity, indicated by the LD50, compared with conventional and commercially used benzodiazepine drugs: significantly lower than that of conventional and commercially used benzodiazepine drugs
[2]; at 23° C
  LD50 at 168 h: 900 mg/kg
[2]; at 30° C
  LD50 at 168 h: 1080 mg/kg
[3]
  diuretic activity: minimal diuretic activity
Mice [4]; 200 mg./kg., footnote to 180, 240 and 300 mins. after dosage
  mice in hypnotic state - not returned to rotarod: 2/5
Mice [4]; mice, 20 mg/Kg
  sedation/tranquillization: apparent sedation/tranquillization
Mice [4]; mice, 100 mg/Kg
  sedation/tranquillization: apparent sedation/tranquillization
Mice [4]; mice, 200 mg/Kg, after 30 minutes
  sedation: marked sedation
Mice [1]; 20 mg./kg., 0 mins. after dosage, 5 mice
  Total Number of Falls: 2
Mice [1]; 20 mg./kg., 15 mins. after dosage, 5 mice
  Total Number of Falls: 0
Mice [1]; 20 mg./kg., 30 mins. after dosage, 5 mice
  Total Number of Falls: 0
Mice [1]; 20 mg./kg., 45 mins. after dosage, 5 mice
  Total Number of Falls: 0
Mice [1]; 20 mg./kg., 60 mins. after dosage, 5 mice
  Total Number of Falls: 0
Mice [1]; 20 mg./kg., 90 mins. after dosage, 5 mice
  Total Number of Falls: 0
Mice [1]; 20 mg./kg., 120 mins. after dosage, 5 mice
  Total Number of Falls: 0
Mice [1]; 20 mg./kg., 180 mins. after dosage, 5 mice
  Total Number of Falls: 0
Mice [1]; 20 mg./kg., 240 mins. after dosage, 5 mice
  Total Number of Falls: 0
Mice [1]; 20 mg./kg., 300 mins. after dosage, 5 mice
  Total Number of Falls: 0
Mice [1]; 100 mg./kg., 0 mins. after dosage, 5 mice
  Total Number of Falls: 2
Mice [1]; 100 mg./kg., 15 mins. after dosage, 5 mice
  Total Number of Falls: 0
Mice [1]; 100 mg./kg., 30 mins. after dosage, 5 mice
  Total Number of Falls: 0
Mice [1]; 100 mg./kg., 45 mins. after dosage, 5 mice
  Total Number of Falls: 0
Mice [1]; 100 mg./kg., 60 mins. after dosage, 5 mice
  Total Number of Falls: 0
Mice [1]; 100 mg./kg., 90 mins. after dosage, 5 mice
  Total Number of Falls: 0
Mice [1]; 100 mg./kg., 120 mins. after dosage, 5 mice
  Total Number of Falls: 0
Mice [1]; 100 mg./kg., 180 mins. after dosage, 5 mice
  Total Number of Falls: 0
Mice [1]; 100 mg./kg., 240 mins. after dosage, 5 mice
  Total Number of Falls: 0
Mice [1]; 100 mg./kg., 300 mins. after dosage, 5 mice
  Total Number of Falls: 0
Mice [1]; 200 mg./kg., 0 mins. after dosage, 5 mice
  Total Number of Falls: 0
Mice [1]; 200 mg./kg., 15 mins. after dosage, 5 mice
  Total Number of Falls: 0
Mice [1]; 200 mg./kg., 30 mins. after dosage, 5 mice
  Total Number of Falls: 23
Mice [1]; 200 mg./kg., 45 mins. after dosage, 5 mice
  Total Number of Falls: 27
Mice [1]; 200 mg./kg., 60 mins. after dosage, 5 mice
  Total Number of Falls: 36
Mice [1]; 200 mg./kg., 90 mins. after dosage, 5 mice
  Total Number of Falls: 34
Mice [1]; 200 mg./kg., 120 mins. after dosage, 5 mice
  Total Number of Falls: 40
Mice [1]; 200 mg./kg., 180 mins. after dosage, 2/5 mice in hypnotic state - not returned to rotarod
  Total Number of Falls: ≥ 26
Mice [1]; 200 mg./kg., 240 mins. after dosage, 2/5 mice in hypnotic state - not returned to rotarod
  Total Number of Falls: ≥ 37
Mice [1]; 200 mg./kg., 300 mins. after dosage, 2/5 mice in hypnotic state - not returned to rotarod
  Total Number of Falls: ≥ 30
Mice [1]; mice, 20 mg/Kg
  effect on muscular coordination: no apparent effect on muscular coordination
Mice [1]; mice, 100 mg/Kg
  effect on muscular coordination: no apparent effect on muscular coordination
Mice [1]; mice, 200 mg/Kg
  difficulty in maintaining balance on the rotating rod: all animals showed difficulty in maintaining balance on the rotating rod
Mice [1]; mice, dose levels producing tranquilizing and sedative effects
  neuro-muscular coordination: normal neuro-muscular coordination
